Series [1] deals with Murine Splenocytes. Kind of series: Cytotoxicity on uninfected ex vivo explants. Particulars: for SIS Selectivity Index (mouse splenocytes): CC50 non-infected mouse splenocytes / EC50 amastigotes; for CC50: read-out: CC50 Murine Splenocytes, CC50 ± SD, uninfected splenocytes, 48 h. Type of series: cell-based, mouse.
The test system of series [2] is Human HepG2. Nature of the series: Cytotoxicity on HepG2 cells. Type of series: cell-based. The settings on record: for CC50: read-out: CC50 Human HepG2, CC50 ± SD, 48 h; for SIh Selectivity Index (human HepG2): CC50 HepG2 / EC50 amastigotes.
For series [3], the system named is L. infantum promastigotes. Nature of the series: Promastigote in vitro assay. Type of series: cell-based. The settings on record: Leishmania infantum, read-out: EC50 L. infantum promastigotes.
Series [4] can be described thus: Cytotoxicity on uninfected ex vivo explants. The settings on record: mouse, uninfected ex vivo splenic explants (murine splenocytes). The series is classed as cell-based, mouse.
The nature of series [5]: Cytotoxicity on HepG2 cells. Type of series: cell-based, human. Particulars: human, HepG2 cells (ATCC HB-8065).
Series [6] has as its target Leishmania tubulin (Leishmania infantum, UniProt A0A381MCS3+A4HTR0). Nature of the series: Tubulin polymerization assay. The series is classed as biochemical, L. infantum.

Chain of Leishmania tubulin (A4HTR0 1-443): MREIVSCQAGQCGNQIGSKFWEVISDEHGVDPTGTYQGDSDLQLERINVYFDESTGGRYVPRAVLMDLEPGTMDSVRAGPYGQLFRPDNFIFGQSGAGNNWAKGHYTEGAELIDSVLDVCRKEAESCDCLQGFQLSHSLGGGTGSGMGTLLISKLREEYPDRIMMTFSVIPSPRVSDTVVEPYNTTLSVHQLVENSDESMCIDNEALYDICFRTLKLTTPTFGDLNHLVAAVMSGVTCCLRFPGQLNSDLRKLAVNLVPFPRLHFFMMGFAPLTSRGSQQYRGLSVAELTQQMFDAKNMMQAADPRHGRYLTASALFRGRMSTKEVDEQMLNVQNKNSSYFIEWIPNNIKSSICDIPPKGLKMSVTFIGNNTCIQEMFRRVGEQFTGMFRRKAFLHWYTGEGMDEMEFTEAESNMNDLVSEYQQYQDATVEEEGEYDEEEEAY
Chain of Leishmania tubulin (A0A381MCS3 1-451): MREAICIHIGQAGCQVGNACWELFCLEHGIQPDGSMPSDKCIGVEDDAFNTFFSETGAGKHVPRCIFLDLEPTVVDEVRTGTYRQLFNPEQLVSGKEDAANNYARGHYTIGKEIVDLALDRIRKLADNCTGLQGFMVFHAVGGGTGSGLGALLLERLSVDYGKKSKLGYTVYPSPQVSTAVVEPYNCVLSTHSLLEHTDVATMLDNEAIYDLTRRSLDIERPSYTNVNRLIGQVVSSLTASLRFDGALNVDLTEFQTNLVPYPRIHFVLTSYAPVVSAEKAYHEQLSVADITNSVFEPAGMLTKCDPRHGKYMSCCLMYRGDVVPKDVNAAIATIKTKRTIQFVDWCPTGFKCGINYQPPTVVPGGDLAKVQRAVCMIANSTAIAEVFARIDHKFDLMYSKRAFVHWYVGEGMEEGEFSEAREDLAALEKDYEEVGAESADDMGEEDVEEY

On to `COc1cc([C@@H]2c3cc4c(cc3C[C@H]3COC(=O)[C@@H]32)OCO4)cc(OC)c1OC` [Compound 1, deoxypodophyllotoxin], for which, in series [1], the “SIS Selectivity Index (mouse splenocytes)” value (from here on “SIS Selectivity Index”) is <1.0. Further, the CC50 in series [1] is 98.6 ± 3.1 µM; in series [2], > 100 µM.

On to `COc1cc([C@@H]2c3cc4c(cc3[C@H](O)[C@H]3COC(=O)[C@H]23)OCO4)cc(OC)c1OC` [Compound 2a, podophyllotoxin], for which the EC50 in series [3] was > 100 µM. In addition, the CC50 at 48 h in series [4] is > 100 µM; in series [5], 0.7 µM. In addition, the “SIS Selectivity Index” value in series [1] is listed as >7.4. For the same molecule, in series [2], the “SIh Selectivity Index (human HepG2)” value was found to be 0.1. For the same molecule, the “IC50 Leishmania tubulin polymerization inhibition” value in series [6] (IC50 ± SD, 1.2 mg/mL tubulin, 37 °C) is “under the μM level”.

For the molecule `COc1cc([C@@H]2c3cc4c(cc3[C@@H](O)[C@H]3COC(=O)[C@H]23)OCO4)cc(OC)c1OC` [Compound 2b, epipodophyllotoxin], the EC50 in series [3] was > 100 µM. Further, the cytotoxic concentration (CC50) at 48 h in series [4] was > 100 µM; in series [5] it was 30.6 ± 2.1 µM. In addition, in series [2], the “SIh Selectivity Index (human HepG2)” value is reported as <0.3.

As to `COc1cc([C@@H]2c3cc4c(cc3C(=O)[C@H]3COC(=O)[C@H]23)OCO4)cc(OC)c1OC` [Compound 3, podophyllotoxone], in series [1], the “SIS Selectivity Index” value is recorded as <0.6 and the CC50 worked out at 60.6 ± 7.7 µM. Moreover, in series [2], the “SIh Selectivity Index (human HepG2)” value is recorded as <0.1 and the 50% cytotoxic concentration (CC50) turned out to be 10.3 ± 0.9 µM.

Regarding `COC(=O)[C@@H]1C(C=O)=Cc2cc3c(cc2[C@H]1c1cc(OC)c(OC)c(OC)c1)OCO3` [Compound 14, podophyllic aldehyde], in series [3], the concentration for a half-maximal effect (EC50) turned out to be 89.5 ± 4.3 µM. Besides, the CC50 at 48 h in series [4] (BALB/c) and in series [5] was > 100 µM throughout. In addition, the “SIS Selectivity Index” value in series [1] is recorded as > 10.8. Moreover, the “SIh Selectivity Index (human HepG2)” value in series [2] is recorded as >10.8.

For the molecule `CCCCCCCCCCCCCCCCOP(=O)([O-])OCC[N+](C)(C)C` [Miltefosine, miltefosine, reference compound], in series [3], the EC50 was 5.9 ± 1.4 µM. Moreover, the half-maximal cytotoxic concentration (CC50) at 48 h in series [4] was found to be 64.7 ± 7 µM; in series [5], 50.4 ± 4.3 µM. Moreover, the “SIS Selectivity Index” value in series [1] is reported as 26.9. In series [2], the “SIh Selectivity Index (human HepG2)” value is 21.

Consider `CC[C@]1(O)C[C@@H]2CN(CCc3c([nH]c4ccccc34)[C@@](C(=O)OC)(c3cc4c(cc3OC)N(C)[C@H]3[C@@](O)(C(=O)OC)[C@H](OC(C)=O)[C@]5(CC)C=CCN6CC[C@]43[C@@H]65)C2)C1` [Vinblastine, reference compound], for which the “Inhibition of tubulin polymerization” value in series [6] (25 μM, positive control) is “inhibits completely”.

For the origin of these results see PMC5512185 (International Journal for Parasitology: Drugs and Drug …, 2017).
